{"source": "the supplement of paper PMC10307832"}
{"compound": "C1=CC2=NC=CN=C2C=C1/C=C/3\\C(=O)NC(=O)S3 + CCNC(=O)c1noc(-c2cc(C(C)C)c(O)cc2O)c1-c1ccc(CN2CCOCC2)cc1 [Luminespib] (partner 0.01 µM)", "test": "relative viability (nuclei count vs DMSO), 5 days (fraction); higher = more cells survive", "details": "first compound 0.02 µM", "in_short": "(§1)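 After 5 days of treatment, lung cancer cells in 1536-well plates were fixed and stained in a single step (final 0.05% Triton X-100, 1% formaldehyde, 1 ug/ml Hoechst) and their nuclei counted on 4× images. Treatment had been applied by pin tool the day after seeding as one drug alone or as a fixed anchor-drug dose with five library-drug doses (not always all listed) in √10 steps. Relative viability is the nuclei count of treated wells divided by that of vehicle wells, and values are medians of duplicate plates.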"}
{"cell line": "NCI-H522", "relative viability": 1.06}
{"cell line": "NCI-H1623", "relative viability": 0.379}
{"cell line": "NCI-H727", "relative viability": 0.427}
{"cell line": "NCI-H1650", "relative viability": 0.221}
{"cell line": "NCI-H1993", "relative viability": 0.712}
{"cell line": "SW 1573", "relative viability": 0.492}
{"cell line": "NCI-H838", "relative viability": 0.295}
{"cell line": "LCLC-103H", "relative viability": 1.02}
{"cell line": "NCI-H520", "relative viability": 0.204}
{"cell line": "NCI-H2126", "relative viability": 0.86}
{"cell line": "EMC-BAC-2", "relative viability": 1.13}
{"cell line": "NCI-H2085", "relative viability": 0.489}
{"cell line": "NCI-H1666", "relative viability": 1.04}
{"cell line": "NCI-H596", "relative viability": 1.13}
{"cell line": "LK-2", "relative viability": 0.186}
{"cell line": "NCI-H2087", "relative viability": 0.169}
{"cell line": "NCI-H2342", "relative viability": 0.721}
{"cell line": "SK-MES-1", "relative viability": 0.645}
{"cell line": "H3255", "relative viability": 0.879}
{"cell line": "COR-L23", "relative viability": 0.684}
{"cell line": "COR-L 105", "relative viability": 0.727}
{"cell line": "LOU-NH91", "relative viability": 0.363}
{"cell line": "ChaGo-K-1", "relative viability": 0.553}
{"cell line": "NCI-H2170", "relative viability": 0.757}
{"cell line": "NCI-H2405", "relative viability": 0.783}
{"cell line": "HOP-62", "relative viability": 0.725}
{"cell line": "HCC-44", "relative viability": 1}
{"cell line": "SW 900", "relative viability": 0.163}
{"cell line": "LU99A", "relative viability": 0.296}
{"cell line": "BEN", "relative viability": 0.631}
{"cell line": "NCI-H1792", "relative viability": 0.418}
{"cell line": "NCI-H1563", "relative viability": 0.512}
{"compound": "C1=CC2=NC=CN=C2C=C1/C=C/3\\C(=O)NC(=O)S3 + CCNC(=O)c1noc(-c2cc(C(C)C)c(O)cc2O)c1-c1ccc(CN2CCOCC2)cc1 [Luminespib] (partner 0.01 µM)", "test": "relative viability (nuclei count vs DMSO), 5 days (fraction); higher = more cells survive", "details": "first compound 0.06325 µM", "in_short": "as §1"}
{"cell line": "NCI-H522", "relative viability": 1.09}
{"cell line": "NCI-H1623", "relative viability": 0.431}
{"cell line": "NCI-H727", "relative viability": 0.496}
{"cell line": "NCI-H1650", "relative viability": 0.194}
{"cell line": "NCI-H1993", "relative viability": 0.863}
{"cell line": "SW 1573", "relative viability": 0.267}
{"cell line": "NCI-H838", "relative viability": 0.446}
{"cell line": "LCLC-103H", "relative viability": 0.966}
{"cell line": "NCI-H520", "relative viability": 0.22}
{"cell line": "NCI-H2126", "relative viability": 1.12}
{"cell line": "EMC-BAC-2", "relative viability": 1.22}
{"cell line": "NCI-H2085", "relative viability": 0.44}
{"cell line": "NCI-H1666", "relative viability": 0.994}
{"cell line": "NCI-H596", "relative viability": 1.13}
{"cell line": "LK-2", "relative viability": 0.202}
{"cell line": "NCI-H2087", "relative viability": 0.208}
{"cell line": "NCI-H2342", "relative viability": 0.672}
{"cell line": "SK-MES-1", "relative viability": 0.876}
{"cell line": "H3255", "relative viability": 0.793}
{"cell line": "COR-L23", "relative viability": 0.842}
{"cell line": "COR-L 105", "relative viability": 0.997}
{"cell line": "LOU-NH91", "relative viability": 0.344}
{"cell line": "ChaGo-K-1", "relative viability": 0.454}
{"cell line": "NCI-H2170", "relative viability": 0.942}
{"cell line": "NCI-H2405", "relative viability": 0.598}
{"cell line": "HOP-62", "relative viability": 0.831}
{"cell line": "HCC-44", "relative viability": 0.829}
{"cell line": "SW 900", "relative viability": 0.176}
{"cell line": "LU99A", "relative viability": 0.207}
{"cell line": "BEN", "relative viability": 0.19}
{"cell line": "NCI-H1792", "relative viability": 0.29}
{"cell line": "NCI-H1563", "relative viability": 0.469}
{"compound": "C1=CC2=NC=CN=C2C=C1/C=C/3\\C(=O)NC(=O)S3 + CCNC(=O)c1noc(-c2cc(C(C)C)c(O)cc2O)c1-c1ccc(CN2CCOCC2)cc1 [Luminespib] (partner 0.01 µM)", "test": "relative viability (nuclei count vs DMSO), 5 days (fraction); higher = more cells survive", "details": "first compound 0.2 µM", "in_short": "as §1"}
{"cell line": "NCI-H522", "relative viability": 1.18}
{"cell line": "NCI-H1623", "relative viability": 0.474}
{"cell line": "NCI-H727", "relative viability": 0.403}
{"cell line": "NCI-H1650", "relative viability": 0.209}
{"cell line": "NCI-H1993", "relative viability": 0.854}
{"cell line": "SW 1573", "relative viability": 0.222}
{"cell line": "NCI-H838", "relative viability": 0.267}
{"cell line": "LCLC-103H", "relative viability": 0.906}
{"cell line": "NCI-H520", "relative viability": 0.257}
{"cell line": "NCI-H2126", "relative viability": 0.866}
{"cell line": "EMC-BAC-2", "relative viability": 1.17}
{"cell line": "NCI-H2085", "relative viability": 0.435}
{"cell line": "NCI-H1666", "relative viability": 1.05}
{"cell line": "NCI-H596", "relative viability": 1.15}
{"cell line": "LK-2", "relative viability": 0.28}
{"cell line": "NCI-H2087", "relative viability": 0.227}
{"cell line": "NCI-H2342", "relative viability": 0.756}
{"cell line": "SK-MES-1", "relative viability": 0.877}
{"cell line": "H3255", "relative viability": 0.909}
{"cell line": "COR-L23", "relative viability": 0.77}
{"cell line": "COR-L 105", "relative viability": 0.816}
{"cell line": "LOU-NH91", "relative viability": 0.334}
{"cell line": "ChaGo-K-1", "relative viability": 0.762}
{"cell line": "NCI-H2170", "relative viability": 0.79}
{"cell line": "NCI-H2405", "relative viability": 0.6}
{"cell line": "HOP-62", "relative viability": 0.904}
{"cell line": "HCC-44", "relative viability": 1.06}
{"cell line": "SW 900", "relative viability": 0.173}
{"cell line": "LU99A", "relative viability": 0.294}
{"cell line": "BEN", "relative viability": 0.402}
{"cell line": "NCI-H1792", "relative viability": 0.453}
{"cell line": "NCI-H1563", "relative viability": 0.514}
{"compound": "C1=CC2=NC=CN=C2C=C1/C=C/3\\C(=O)NC(=O)S3 + CCNC(=O)c1noc(-c2cc(C(C)C)c(O)cc2O)c1-c1ccc(CN2CCOCC2)cc1 [Luminespib] (partner 0.01 µM)", "test": "relative viability (nuclei count vs DMSO), 5 days (fraction); higher = more cells survive", "details": "first compound 0.6325 µM", "in_short": "as §1"}
{"cell line": "NCI-H522", "relative viability": 1.05}
{"cell line": "NCI-H1623", "relative viability": 0.47}
{"cell line": "NCI-H727", "relative viability": 0.444}
{"cell line": "NCI-H1650", "relative viability": 0.209}
{"cell line": "NCI-H1993", "relative viability": 0.798}
{"cell line": "SW 1573", "relative viability": 0.762}
{"cell line": "NCI-H838", "relative viability": 0.26}
{"cell line": "LCLC-103H", "relative viability": 0.966}
{"cell line": "NCI-H520", "relative viability": 0.191}
{"cell line": "NCI-H2126", "relative viability": 0.83}
{"cell line": "EMC-BAC-2", "relative viability": 1.09}
{"cell line": "NCI-H2085", "relative viability": 0.452}
{"cell line": "NCI-H1666", "relative viability": 0.965}
{"cell line": "NCI-H596", "relative viability": 0.991}
{"cell line": "LK-2", "relative viability": 0.175}
{"cell line": "NCI-H2087", "relative viability": 0.173}
{"cell line": "NCI-H2342", "relative viability": 0.601}
{"cell line": "SK-MES-1", "relative viability": 0.779}
{"cell line": "H3255", "relative viability": 0.857}
{"cell line": "COR-L23", "relative viability": 0.581}
{"cell line": "COR-L 105", "relative viability": 0.695}
{"cell line": "LOU-NH91", "relative viability": 0.346}
{"cell line": "ChaGo-K-1", "relative viability": 0.541}
{"cell line": "NCI-H2170", "relative viability": 0.525}
{"cell line": "NCI-H2405", "relative viability": 0.699}
{"cell line": "HOP-62", "relative viability": 0.9}
{"cell line": "HCC-44", "relative viability": 1.04}
{"cell line": "SW 900", "relative viability": 0.223}
{"cell line": "LU99A", "relative viability": 0.267}
{"cell line": "BEN", "relative viability": 0.332}
{"cell line": "NCI-H1792", "relative viability": 0.436}
{"cell line": "NCI-H1563", "relative viability": 0.438}
{"compound": "C1=CC2=NC=CN=C2C=C1/C=C/3\\C(=O)NC(=O)S3 + CCNC(=O)c1noc(-c2cc(C(C)C)c(O)cc2O)c1-c1ccc(CN2CCOCC2)cc1 [Luminespib] (partner 0.01 µM)", "test": "relative viability (nuclei count vs DMSO), 5 days (fraction); higher = more cells survive", "details": "first compound 2 µM", "in_short": "as §1"}
{"cell line": "NCI-H522", "relative viability": 0.956}
{"cell line": "NCI-H1623", "relative viability": 0.335}
{"cell line": "NCI-H727", "relative viability": 0.265}
{"cell line": "NCI-H1650", "relative viability": 0.171}
{"cell line": "NCI-H1993", "relative viability": 0.557}
{"cell line": "SW 1573", "relative viability": 0.208}
{"cell line": "NCI-H838", "relative viability": 0.324}
{"cell line": "LCLC-103H", "relative viability": 0.806}
{"cell line": "NCI-H520", "relative viability": 0.248}
{"cell line": "NCI-H2126", "relative viability": 0.601}
{"cell line": "EMC-BAC-2", "relative viability": 1.02}
{"cell line": "NCI-H2085", "relative viability": 0.428}
{"cell line": "NCI-H1666", "relative viability": 1.03}
{"cell line": "NCI-H596", "relative viability": 0.939}
{"cell line": "LK-2", "relative viability": 0.175}
{"cell line": "NCI-H2087", "relative viability": 0.203}
{"cell line": "NCI-H2342", "relative viability": 0.636}
{"cell line": "SK-MES-1", "relative viability": 0.852}
{"cell line": "H3255", "relative viability": 0.809}
{"cell line": "COR-L23", "relative viability": 0.652}
{"cell line": "COR-L 105", "relative viability": 0.618}
{"cell line": "LOU-NH91", "relative viability": 0.314}
{"cell line": "ChaGo-K-1", "relative viability": 0.572}
{"cell line": "NCI-H2170", "relative viability": 0.717}
{"cell line": "NCI-H2405", "relative viability": 0.424}
{"cell line": "HOP-62", "relative viability": 0.922}
{"cell line": "HCC-44", "relative viability": 0.868}
{"cell line": "SW 900", "relative viability": 0.21}
{"cell line": "LU99A", "relative viability": 0.24}
{"cell line": "BEN", "relative viability": 0.314}
{"cell line": "NCI-H1792", "relative viability": 0.374}
{"cell line": "NCI-H1563", "relative viability": 0.509}
{"compound": "C1=CC2=NC=CN=C2C=C1/C=C/3\\C(=O)NC(=O)S3 + Cc1nc(Nc2ncc(C(=O)Nc3c(C)cccc3Cl)s2)cc(N2CCN(CCO)CC2)n1 [Dasatinib] (partner 0.075 µM)", "test": "relative viability (nuclei count vs DMSO), 5 days (fraction); higher = more cells survive", "details": "first compound 0.02 µM", "in_short": "as §1"}
{"cell line": "NCI-H522", "relative viability": 0.899}
{"cell line": "NCI-H1623", "relative viability": 0.511}
